Tested on: 323965-272-R-J2-PDC complex spheroid viability
Test: Anticancer human tumor 323965-272-R-J2-PDC patient-derived pancreatic carcinoma cell line growth inhibition [CLK]
Settings: for IC50: curve of first compound; for viability, T/C: stronger effect = lower value
Summary of the method: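 Patient-derived tumor cells grown as complex spheroids with HUVEC endothelial cells and mesenchymal stem cells, treated with drug combinations. Concentrations descend in half-log steps from near clinical Cmax, or from 10 microM if Cmax unknown.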

[1] = second compound 0.0316 µM, first compound 0.0316 µM
[2] = second compound 0.0316 µM, first compound 0.1 µM
[3] = second compound 0.0316 µM, first compound 0.316 µM
[4] = second compound 0.0316 µM, first compound 1 µM
[5] = second compound 0.0316 µM, first compound 3.16 µM
[6] = second compound 0.0316 µM, first compound 10 µM
[7] = second compound 0.1 µM, first compound 0.0316 µM
[8] = second compound 0.1 µM, first compound 0.1 µM
[9] = second compound 0.1 µM, first compound 0.316 µM
[10] = second compound 0.1 µM, first compound 1 µM
[11] = second compound 0.1 µM, first compound 3.16 µM
[12] = second compound 0.1 µM, first compound 10 µM
[13] = second compound 0.316 µM, first compound 0.0316 µM
[14] = second compound 0.316 µM, first compound 0.1 µM
[15] = second compound 0.316 µM, first compound 0.316 µM
[16] = second compound 0.316 µM, first compound 1 µM
[17] = second compound 0.316 µM, first compound 3.16 µM
[18] = second compound 0.316 µM, first compound 10 µM
[19] = second compound 1 µM, first compound 0.0316 µM
[20] = second compound 1 µM, first compound 0.1 µM
[21] = second compound 1 µM, first compound 0.316 µM
[22] = second compound 1 µM, first compound 1 µM
[23] = second compound 1 µM, first compound 3.16 µM
[24] = second compound 1 µM, first compound 10 µM
[25] = second compound 3.16 µM, first compound 0.0316 µM
[26] = second compound 3.16 µM, first compound 0.1 µM
[27] = second compound 3.16 µM, first compound 0.316 µM
[28] = second compound 3.16 µM, first compound 1 µM
[29] = second compound 3.16 µM, first compound 3.16 µM
[30] = second compound 3.16 µM, first compound 10 µM
[31] = second compound 10 µM, first compound 0.0316 µM
[32] = second compound 10 µM, first compound 0.1 µM
[33] = second compound 10 µM, first compound 0.316 µM
[34] = second compound 10 µM, first compound 1 µM
[35] = second compound 10 µM, first compound 3.16 µM
[36] = second compound 10 µM, first compound 10 µM
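Note: spheroids exposed to agents for seven days before readout.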
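Throughout, for viability, T/C: percent of DMSO vehicle control wells so 100% = untreated growth.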

CC(=O)O[C@H]1C(=O)[C@@]2(C)[C@H]([C@H](OC(=O)c3ccccc3)[C@]3(O)C[C@H](OC(=O)[C@H](O)[C@@H](NC(=O)c4ccccc4)c4ccccc4)C(C)=C1C3(C)C)[C@]1(OC(C)=O)CO[C@@H]1C[C@@H]2O + CNC(=O)c1ccc(Nc2nc(OC3CCCC3)c3c(-c4ccc5nc(C)oc5c4)c[nH]c3n2)c(OC)c1
IC50 (second compound 0.0316 µM): < 0.0316 µM
IC50 (second compound 0.1 µM): < 0.0316 µM
IC50 (second compound 0.316 µM): > 10 µM
IC50 (second compound 1 µM): > 10 µM
IC50 (second compound 3.16 µM): < 0.0316 µM
IC50 (second compound 10 µM): < 0.0316 µM
viability, T/C [1]: 32.8%
viability, T/C [2]: 40.5%
viability, T/C [3]: 34.4%
viability, T/C [4]: 33.2%
viability, T/C [5]: 33.1%
viability, T/C [6]: 36.9%
viability, T/C [7]: 45.3%
viability, T/C [8]: 42.7%
viability, T/C [9]: 41.9%
viability, T/C [10]: 37.9%
viability, T/C [11]: 38.5%
viability, T/C [12]: 38.5%
viability, T/C [13]: 66.5%
viability, T/C [14]: 68.7%
viability, T/C [15]: 62.7%
viability, T/C [16]: 67.7%
viability, T/C [17]: 68.5%
viability, T/C [18]: 76.1%
viability, T/C [19]: 55.4%
viability, T/C [20]: 60.1%
viability, T/C [21]: 67.5%
viability, T/C [22]: 63.2%
viability, T/C [23]: 75.8%
viability, T/C [24]: 74.5%
viability, T/C [25]: 48.6%
viability, T/C [26]: 53.5%
viability, T/C [27]: 49.8%
viability, T/C [28]: 56.1%
viability, T/C [29]: 65.3%
viability, T/C [30]: 60.4%
viability, T/C [31]: 44.6%
viability, T/C [32]: 49%
viability, T/C [33]: 49.2%
viability, T/C [34]: 55.8%
viability, T/C [35]: 68.7%
viability, T/C [36]: 60.4%

CCc1c2c(nc3ccc(O)cc13)-c1cc3c(c(=O)n1C2)COC(=O)[C@]3(O)CC + CNC(=O)c1ccc(Nc2nc(OC3CCCC3)c3c(-c4ccc5nc(C)oc5c4)c[nH]c3n2)c(OC)c1
IC50 (second compound 0.0316 µM): 0.00788 µM
IC50 (second compound 0.1 µM): 0.00814 µM
IC50 (second compound 0.316 µM): 0.00418 µM
IC50 (second compound 1 µM): < 0.00316 µM
IC50 (second compound 3.16 µM): < 0.00316 µM
IC50 (second compound 10 µM): < 0.00316 µM
viability, T/C (second compound 0.0316 µM, first compound 0.00316 µM): 73.5%
viability, T/C (second compound 0.0316 µM, first compound 0.01 µM): 42.4%
viability, T/C [1]: 33%
viability, T/C [2]: 30.2%
viability, T/C [3]: 24.4%
viability, T/C [4]: 23.4%
viability, T/C (second compound 0.1 µM, first compound 0.00316 µM): 61%
viability, T/C (second compound 0.1 µM, first compound 0.01 µM): 47.1%
viability, T/C [7]: 39%
viability, T/C [8]: 29.9%
viability, T/C [9]: 25%
viability, T/C [10]: 24%
viability, T/C (second compound 0.316 µM, first compound 0.00316 µM): 54.1%
viability, T/C (second compound 0.316 µM, first compound 0.01 µM): 38.7%
viability, T/C [13]: 30%
viability, T/C [14]: 27.9%
viability, T/C [15]: 18.4%
viability, T/C [16]: 16.8%
viability, T/C (second compound 1 µM, first compound 0.00316 µM): 34.8%
viability, T/C (second compound 1 µM, first compound 0.01 µM): 25.8%
viability, T/C [19]: 21.9%
viability, T/C [20]: 16.6%
viability, T/C [21]: 15.2%
viability, T/C [22]: 10.9%
viability, T/C (second compound 3.16 µM, first compound 0.00316 µM): 30.9%
viability, T/C (second compound 3.16 µM, first compound 0.01 µM): 30.1%
viability, T/C [25]: 25.3%
viability, T/C [26]: 14.3%
viability, T/C [27]: 17%
viability, T/C [28]: 11.9%
viability, T/C (second compound 10 µM, first compound 0.00316 µM): 30.5%
viability, T/C (second compound 10 µM, first compound 0.01 µM): 23.6%
viability, T/C [31]: 20.9%
viability, T/C [32]: 16%
viability, T/C [33]: 14.2%
viability, T/C [34]: 8.54%

O=c1[nH]cc(F)c(=O)[nH]1 + CNC(=O)c1ccc(Nc2nc(OC3CCCC3)c3c(-c4ccc5nc(C)oc5c4)c[nH]c3n2)c(OC)c1
IC50 (second compound 0.0316 µM): > 10 µM
IC50 (second compound 0.1 µM): > 10 µM
IC50 (second compound 0.316 µM): 1.9 µM
IC50 (second compound 1 µM): < 0.0316 µM
IC50 (second compound 3.16 µM): < 0.0316 µM
IC50 (second compound 10 µM): < 0.0316 µM
viability, T/C [1]: 84.2%
viability, T/C [2]: 91.9%
viability, T/C [3]: 110%
viability, T/C [4]: 91.4%
viability, T/C [5]: 73.8%
viability, T/C [6]: 55.4%
viability, T/C [7]: 85.1%
viability, T/C [8]: 80.5%
viability, T/C [9]: 72.4%
viability, T/C [10]: 65.6%
viability, T/C [11]: 57.3%
viability, T/C [12]: 53.1%
viability, T/C [13]: 59.2%
viability, T/C [14]: 59.9%
viability, T/C [15]: 57.8%
viability, T/C [16]: 48.3%
viability, T/C [17]: 50.6%
viability, T/C [18]: 41.6%
viability, T/C [19]: 43.9%
viability, T/C [20]: 41.1%
viability, T/C [21]: 48.1%
viability, T/C [22]: 38.2%
viability, T/C [23]: 34.7%
viability, T/C [24]: 29.3%
viability, T/C [25]: 40.6%
viability, T/C [26]: 36.8%
viability, T/C [27]: 37.4%
viability, T/C [28]: 36.9%
viability, T/C [29]: 29.5%
viability, T/C [30]: 27.2%
viability, T/C [31]: 37.8%
viability, T/C [32]: 42.7%
viability, T/C [33]: 38.9%
viability, T/C [34]: 37.6%
viability, T/C [35]: 31.4%
viability, T/C [36]: 31.3%

— PubChem BioAssay AID2060619 (Molecular Pharmacology Branch, DTP, NCI, 2025)
